Test results as given in ChEMBL document CHEMBL1201862, “PubChem BioAssay data set” (2004).
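In this assay, cells in 96-well plates receive the compound at five concentrations for 48 hours. Endpoints are linearly interpolated between the surrounding concentrations. GI50 marks 50% less growth.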 Activity calls are given as the source filed them. Rule as the data show it: active = GI50 up to about 1.1 µM and inactive = higher.

Legend:
Assay in all cases: growth of human tumour cells (NCI), 48 h
EKVX = system: EKVX
M14 = system: M14
HT-29 = system: HT-29
HCC 2998 = system: HCC 2998
SK-MEL-2 = system: SK-MEL-2
BT-549 = system: BT-549
NCI-H522 = system: NCI-H522
K562 = system: K562
LOX IMVI = system: LOX IMVI
KM12 = system: KM12
OVCAR-3 = system: OVCAR-3
IGROV-1 = system: IGROV-1
ACHN = system: ACHN
COLO 205 = system: COLO 205
SN12C = system: SN12C
NCI-H23 = system: NCI-H23
Malme-3M = system: Malme-3M
T47D = system: T47D
786-0 = system: 786-0
TK-10 = system: TK-10

Nc1ccc(-c2ccc(Nc3cc(S(=O)(=O)O)c(N)c4c3C(=O)c3ccccc3C4=O)cc2)c(S(=O)(=O)O)c1
GI50 (EKVX): > 100 µM (inactive)
GI50 (M14): > 100 µM (inactive)
GI50 (HT-29): > 100 µM (inactive)
GI50 (HCC 2998): > 100 µM (inactive)
GI50 (SK-MEL-2): > 100 µM (inactive)
GI50 (BT-549): > 100 µM (inactive)
GI50 (NCI-H522): > 100 µM (inactive)
GI50 (K562): > 100 µM (inactive)
GI50 (LOX IMVI): > 100 µM (inactive)
GI50 (KM12): > 100 µM (inactive)
GI50 (OVCAR-3): > 100 µM (inactive)
GI50 (IGROV-1): > 100 µM (inactive)
GI50 (ACHN): > 100 µM (inactive)
GI50 (COLO 205): > 100 µM (inactive)
GI50 (SN12C): > 100 µM (inactive)
GI50 (NCI-H23): > 100 µM (inactive)
GI50 (Malme-3M): > 100 µM (inactive)
GI50 (T47D): > 100 µM (inactive)
GI50 (786-0): > 100 µM (inactive)
GI50 (TK-10): > 100 µM (inactive)

Cc1cccc2c(N)c3cccc(C(=O)NCCNCCN)c3nc12
GI50 (EKVX): 10.4 µM (inactive)
GI50 (M14): 28.7 µM (inactive)
GI50 (HT-29): 2.9 µM (inactive)
GI50 (HCC 2998): 6.79 µM (inactive)
GI50 (SK-MEL-2): 13 µM (inactive)
GI50 (BT-549): 14.6 µM (inactive)
GI50 (NCI-H522): 0.0826 µM (active)
GI50 (K562): 8.28 µM (inactive)
GI50 (LOX IMVI): 5.28 µM (inactive)
GI50 (KM12): 3.89 µM (inactive)
GI50 (OVCAR-3): 21.9 µM (inactive)
GI50 (IGROV-1): 5.01 µM (inactive)
GI50 (ACHN): 3.8 µM (inactive)
GI50 (COLO 205): 2.71 µM (inactive)
GI50 (SN12C): 0.179 µM (active)
GI50 (NCI-H23): 0.598 µM (active)
GI50 (Malme-3M): 15.4 µM (inactive)
GI50 (T47D): 7.36 µM (inactive)
GI50 (786-0): 0.0644 µM (active)
GI50 (TK-10): 22.3 µM (inactive)

CC[C@H](C)[C@H]1NC(=O)[C@@H](NC(=O)[C@@H](CC(C)C)N(C)CC2CCCN2C(=O)C(C)=O)[C@@H](C)OC(=O)[C@H](Cc2ccc(OC)cc2)N(C)C(=O)C2CCCN2C(=O)[C@H](CC(C)C)NC(=O)[C@@H](C)C(=O)[C@H](C(C)C)OC(=O)C[C@@H]1O (stereo not given in full)
GI50 (EKVX): 0.00379 µM (active)
GI50 (M14): 0.00374 µM (active)
GI50 (HT-29): 0.00255 µM (active)
GI50 (HCC 2998): 0.00448 µM (active)
GI50 (SK-MEL-2): 0.00351 µM (active)
GI50 (BT-549): 0.0047 µM (active)
GI50 (NCI-H522): 0.00564 µM (active)
GI50 (K562): 0.00531 µM (active)
GI50 (LOX IMVI): 0.00291 µM (active)
GI50 (KM12): 0.00302 µM (active)
GI50 (OVCAR-3): 0.00324 µM (active)
GI50 (IGROV-1): < 0.0025 µM (active)
GI50 (ACHN): 0.00444 µM (active)
GI50 (COLO 205): 0.00293 µM (active)
GI50 (SN12C): 0.00545 µM (active)
GI50 (NCI-H23): 0.00719 µM (active)
GI50 (Malme-3M): 0.00681 µM (active)
GI50 (T47D): 0.00344 µM (active)
GI50 (786-0): 0.00494 µM (active)
GI50 (TK-10): 0.00853 µM (active)

Cn1c2ccccc2n2c3ncccc3c(=O)c(C#N)c12
GI50 (EKVX): 32.8 µM (inactive)
GI50 (M14): 32.3 µM (inactive)
GI50 (HT-29): 5.51 µM (inactive)
GI50 (HCC 2998): 21.5 µM (inactive)
GI50 (SK-MEL-2): 35 µM (inactive)
GI50 (BT-549): 16.5 µM (inactive)
GI50 (NCI-H522): 9.02 µM (inactive)
GI50 (K562): > 100 µM (inactive)
GI50 (LOX IMVI): 5.96 µM (inactive)
GI50 (KM12): 14.6 µM (inactive)
GI50 (OVCAR-3): 11 µM (inactive)
GI50 (IGROV-1): 5.32 µM (inactive)
GI50 (ACHN): 3.09 µM (inactive)
GI50 (COLO 205): 3.91 µM (inactive)
GI50 (SN12C): 8.49 µM (inactive)
GI50 (NCI-H23): 10.2 µM (inactive)
GI50 (Malme-3M): 6.04 µM (inactive)
GI50 (T47D): 15.2 µM (inactive)
GI50 (786-0): 8.83 µM (inactive)
GI50 (TK-10): 50.6 µM (inactive)

O=C(/C=C1\C[C@H]2C=Nc3ccccc3C(=O)N2C1)NCCCNC(=O)/C=C1\C[C@H]2C=Nc3ccccc3C(=O)N2C1
GI50 (EKVX): 19.8 µM (inactive)
GI50 (M14): 14.4 µM (inactive)
GI50 (HT-29): 16.4 µM (inactive)
GI50 (HCC 2998): 20.2 µM (inactive)
GI50 (SK-MEL-2): 19.3 µM (inactive)
GI50 (BT-549): 16.4 µM (inactive)
GI50 (NCI-H522): 1.96 µM (inactive)
GI50 (K562): 5.96 µM (inactive)
GI50 (LOX IMVI): 6.25 µM (inactive)
GI50 (KM12): 16 µM (inactive)
GI50 (OVCAR-3): 12 µM (inactive)
GI50 (IGROV-1): 17.3 µM (inactive)
GI50 (ACHN): 14.9 µM (inactive)
GI50 (COLO 205): 12.9 µM (inactive)
GI50 (SN12C): 18 µM (inactive)
GI50 (NCI-H23): 15.5 µM (inactive)
GI50 (Malme-3M): 15.9 µM (inactive)
GI50 (T47D): 16 µM (inactive)
GI50 (786-0): 3.03 µM (inactive)
GI50 (TK-10): 19.8 µM (inactive)

O=C1Sc2cc3ccccc3cc2C(=O)Sc2ccc(Br)cc21
GI50 (EKVX): 14.3 µM (inactive)
GI50 (M14): 3.54 µM (inactive)
GI50 (HT-29): 3.41 µM (inactive)
GI50 (HCC 2998): 4.57 µM (inactive)
GI50 (SK-MEL-2): 4.56 µM (inactive)
GI50 (BT-549): 3.29 µM (inactive)
GI50 (NCI-H522): 1.82 µM (inactive)
GI50 (K562): 4.17 µM (inactive)
GI50 (LOX IMVI): 1.76 µM (inactive)
GI50 (KM12): 7.16 µM (inactive)
GI50 (OVCAR-3): 1.79 µM (inactive)
GI50 (IGROV-1): 3.78 µM (inactive)
GI50 (ACHN): 1.66 µM (inactive)
GI50 (COLO 205): 12.8 µM (inactive)
GI50 (SN12C): 3.93 µM (inactive)
GI50 (NCI-H23): 8.47 µM (inactive)
GI50 (Malme-3M): 11.9 µM (inactive)
GI50 (T47D): 3.33 µM (inactive)
GI50 (786-0): 2.07 µM (inactive)
GI50 (TK-10): 5.33 µM (inactive)

CC[S+]([O-])c1c2cc(OC)ccc2nc2ccc(OC)cc12 (stereo not given)
GI50 (EKVX): 16.9 µM (inactive)
GI50 (M14): 10.2 µM (inactive)
GI50 (HT-29): 4.09 µM (inactive)
GI50 (HCC 2998): 16.6 µM (inactive)
GI50 (SK-MEL-2): 17.5 µM (inactive)
GI50 (BT-549): 17.5 µM (inactive)
GI50 (NCI-H522): 1.83 µM (inactive)
GI50 (K562): 2.42 µM (inactive)
GI50 (LOX IMVI): 2.58 µM (inactive)
GI50 (KM12): 16.2 µM (inactive)
GI50 (OVCAR-3): 6 µM (inactive)
GI50 (IGROV-1): 4.94 µM (inactive)
GI50 (ACHN): 4.79 µM (inactive)
GI50 (COLO 205): 6.08 µM (inactive)
GI50 (SN12C): 4.58 µM (inactive)
GI50 (NCI-H23): 6.05 µM (inactive)
GI50 (Malme-3M): 5.12 µM (inactive)
GI50 (T47D): 2.62 µM (inactive)
GI50 (786-0): 2.56 µM (inactive)
GI50 (TK-10): 5.38 µM (inactive)

COc1ccc(NC(=O)C2=C(SC)C(C#N)C(=O)N=C2N)cc1 (stereo not given)
GI50 (EKVX): > 100 µM (inactive)
GI50 (M14): > 100 µM (inactive)
GI50 (HT-29): > 100 µM (inactive)
GI50 (HCC 2998): > 100 µM (inactive)
GI50 (SK-MEL-2): > 100 µM (inactive)
GI50 (BT-549): > 100 µM (inactive)
GI50 (NCI-H522): 15.1 µM (inactive)
GI50 (K562): 54.3 µM (inactive)
GI50 (LOX IMVI): > 100 µM (inactive)
GI50 (KM12): 0.369 µM (active)
GI50 (OVCAR-3): > 100 µM (inactive)
GI50 (IGROV-1): 20.3 µM (inactive)
GI50 (ACHN): > 100 µM (inactive)
GI50 (COLO 205): 55.7 µM (inactive)
GI50 (SN12C): > 100 µM (inactive)
GI50 (NCI-H23): > 100 µM (inactive)
GI50 (Malme-3M): 26.9 µM (inactive)
GI50 (T47D): 49.4 µM (inactive)
GI50 (786-0): 65.8 µM (inactive)
GI50 (TK-10): > 100 µM (inactive)

O=C(Nc1ccc(N2C(=O)CSC2c2cccs2)cc1)c1ccc(N2C(=O)CSC2c2cccs2)cc1 (stereo not given)
GI50 (EKVX): > 100 µM (inactive)
GI50 (M14): > 100 µM (inactive)
GI50 (HT-29): > 100 µM (inactive)
GI50 (HCC 2998): > 100 µM (inactive)
GI50 (SK-MEL-2): > 100 µM (inactive)
GI50 (BT-549): > 100 µM (inactive)
GI50 (NCI-H522): 36.1 µM (inactive)
GI50 (K562): 56.2 µM (inactive)
GI50 (LOX IMVI): 88.9 µM (inactive)
GI50 (KM12): > 100 µM (inactive)
GI50 (OVCAR-3): > 100 µM (inactive)
GI50 (IGROV-1): > 100 µM (inactive)
GI50 (ACHN): > 100 µM (inactive)
GI50 (COLO 205): > 100 µM (inactive)
GI50 (SN12C): > 100 µM (inactive)
GI50 (NCI-H23): 24.8 µM (inactive)
GI50 (Malme-3M): > 100 µM (inactive)
GI50 (T47D): 46.5 µM (inactive)
GI50 (786-0): 58.6 µM (inactive)
GI50 (TK-10): > 100 µM (inactive)

COc1ccccc1NC(=O)C1=C(C)NC(C)=C(C(=O)Nc2ccccc2OC)C1c1ccco1
GI50 (EKVX): 10.9 µM (inactive)
GI50 (M14): 4.71 µM (inactive)
GI50 (HT-29): 3.92 µM (inactive)
GI50 (HCC 2998): 8.79 µM (inactive)
GI50 (SK-MEL-2): 3.64 µM (inactive)
GI50 (BT-549): 8.49 µM (inactive)
GI50 (NCI-H522): 2.66 µM (inactive)
GI50 (K562): 5.19 µM (inactive)
GI50 (LOX IMVI): 8.07 µM (inactive)
GI50 (KM12): 3.98 µM (inactive)
GI50 (OVCAR-3): 2.91 µM (inactive)
GI50 (IGROV-1): 9.14 µM (inactive)
GI50 (ACHN): 6.41 µM (inactive)
GI50 (COLO 205): 5.56 µM (inactive)
GI50 (SN12C): 13.4 µM (inactive)
GI50 (NCI-H23): 6.4 µM (inactive)
GI50 (Malme-3M): 4.2 µM (inactive)
GI50 (T47D): 11.9 µM (inactive)
GI50 (786-0): 4.45 µM (inactive)
GI50 (TK-10): 19.5 µM (inactive)
